Results: patent publication US20260083698A1, “Synergistic Stimulation of Mucociliary Clearance to Treat Mucus Obstruction in Cystic Fibrosis and Other Muco-Obstructive Disorders” (The Board of Trustees of the Leland Stanford Junior …, priority 2022, published 2026)

Assays:
WT piglet tracheas = experiment: Mucociliary clearance velocity (MCCV) in ex vivo WT piglet tracheas; set-up: species or system pig; details: for Averaged MCCV: 10 μM forskolin, 0.3 μM carbachol, last 20 min of single agonist period, last 50 min of synergy period
Procedure: MCCV in tracheas was measured from 2 to 5 days old WT piglets (see “Methods” section for details). […] The 8 piglet tracheas were divided into two groups and tested 4 by applying forskolin first and 4 by applying carbachol first, followed by the combined agonists.
These experiments used forskolin to elevate cAMP.
Pig tissues. Newborn WT piglet tracheas (2-5 days old) were directly obtained at the swine facility of UC Davis or from the laboratory of David Stoltz, University of Iowa, via overnight priority express. Postmortem (<1 h) tracheas from young adult Yorkshire pigs (30-50 kg) and 5-12 months old M. putorius ferrets were from animal facilities at Stanford and Gilroy/CA. All methods using animal tracheae were carried out in accordance with relevant guidelines and regulations of Stanford University and animal protocols were approved (Stanford IACUC protocol#: 10,048). Piglet tracheas were shipped in DMEM cell culture medium, other animal tissues were transported to the laboratory in cold PhysioSol™ solution (Hospira, IL/USA) and then transferred to icecold Krebs Ringer bicarbonate (KRB) buffer gassed with 95% O2 and 5% CO2 and kept at 4° C. until use. The KRB buffer contained (in mM): 115 NaCl, 25 NaHCO3, 2.4 K2HPO4, 0.4 KH2PO4, 1.2 MgCl2, 1.2 CaCl2, 10 glucose, and 1.0 μM indomethacin, adjusted to pH 7.2 and ˜290 mOsm at room temperature.
MCCV measurement. Details are in the previous reports (16,59,60). Briefly, each whole length ferret or piglet trachea, or a CF tracheal trim, was cut open along the mid-dorsal line and mounted mucosal side up onto a Sylgard elastomer platform. […] The prepared trachea was placed into a sealed, humidified chamber bubbled continuously with gas (95%/5%-O2/CO2) with the serosal surface bathed with KRB buffer±drugs. […] Then excess apical solution was drained, and tissue was incubated for an additional 10 min before starting baseline measurements of MCCV. Drugs were added by bath replacement with pre-warmed bath+drug(s). Summary MCCV data are reported as a single number and based on the averaged MCCV during the last 20 min of the treatment period unless stated otherwise.
MCCV (all values are in mm/min) was then measured for 90-120 min and plotted as MCCV vs time and agonist(s) in FIG. 8.
It was hypothesized that the synergistic MCC induced by β-adrenergic and cholinergic agonists involved ENaC inhibition.

[1] = tested on: piglet or ferret tracheal rings; experiment: Airway narrowing: lumen area of thin sliced tracheal rings, carbachol; set-up: species or system pig; ferret; details: 0.3 mM carbachol alone
Procedure: FIG. 2. Elevating cAMP by adenylate cyclase activation inhibited muscle tension and airway narrowing to carbachol. (A, B) To measure muscle tension, one end of an isolated WT ferret trachealis muscle bundle was secured in a Sylgard-lined Petri dish filled with KRB solution and the other end was attached by 26-gauge wire to a previously calibrated strain gauge. […] (red closed circles). Averaged responses at 10 min intervals are shown for: (C) WT piglet tracheas (n=3-7) with forskolin. […] (F). CF ferrets (n=2, one CFTRΔF/ΔF and one CFTRΔF/G551D). […] Used alone they have opposite effects: Ca^2+-elevating agonists contract muscles whereas cAMP-elevating agonists relax them. For therapeutic use, the potential for producing unwanted bronchoconstriction with the combined agonists is a safety concern. […] Tension of ferret trachealis muscle bundles was measured to increasing carbachol concentrations±[…] forskolin. […] Importantly, the protective effect was also observed in CF ferrets (FIG. 2F). Airway smooth muscle contraction measurement. Two methods were used to measure tracheal smooth muscle contraction. One is designed to measure airway narrowing using thin sliced tracheal rings. Piglet or ferret tracheal ring preparations of ˜2 mm were submerged and securely pinned on a Sylgard-lined Petri dish filled with KRB solution at 37° C. and pH 7.4. […] The other method is using a force transducer. […]

WT ferret tracheas = details: WT ferrets, obtained previously (16); cited from earlier work
human nasal mucosa = experiment: Ciliary beat frequency (CBF) measurement; details: 37° C.; for CBF: human nasal mucosa, KRB, 0.3 μM carbachol, 10 μM forskolin
Procedure: Ciliary beat frequency was measured in human nasal mucosa from 4 subjects. CBF (in Hz) of unstimulated tissues at 37° C. in Krebs buffer (KRB) was 10.46±0.95. […] (Note that in this experiment any effects on ASL by the agonists were diluted because the ciliated tissue was studied while submerged in Krebs solution.) […] It was tested to see if CBF might display synergistic increases to the combined agonists. CBF (in Hz) of unstimulated human nasal cells in KRB (Krebs buffer solution) was 6.79±1.69 at 25° C. and 10.46±0.95 at 37° C. (4 subjects, P=0.01) (see “Methods” section). […] Thus, while increases in CBF will contribute to increases in MCCV, they are unlikely to account for the synergistic increase in MCCV seen with the combined agonists (see “Discussion” section). Human tissues. Human nasal mucosal tissues were obtained from nasal biopsies during endoscopic sinus surgeries at Yonsei University Hospital. All methods using human tissues were carried out in accordance with relevant guidelines and regulations of Yonsei University, Seoul, South Korea. All experimental protocols were approved by Yonsei University and informed consent was obtained from all participants prior to the study (Yonsei University-IRB protocol#: 4-2016-1153). Ciliary beat frequency measurement. Ciliary beat frequency was measured using human nasal mucosa in the lab where ferret and pig tracheal mucosa was not readily accessible. Human nasal mucosa from endoscopic nasal biopsies was further dissected under a microscope and placed in a chamber controlled for temperature and pH control. Perfused Krebs bicarbonate buffer was maintained at 37° C. and pH 7.4. Cilia were visualized with a Zeiss microscope equipped with 40× or 60× objectives (Munich, Germany) using differential interference contrast (DIC) optics. […] Images were obtained for 10 s at each condition and experiments were performed in the following sequence: (1) unstimulated CBF at room temperature; (2) unstimulated at 37° C.; (3) CBF at 37° C. with 0.3 μM carbachol; (4) wash for 10 min; […] Each condition was maintained for at least 10 min. […] All recordings at each condition were made at three different areas of the epithelia, and the analyzed CBF was averaged for each experiment. To analyze captured images and calculate CBF, an in-house coding with a MATLAB software (MA, USA) was used.

SMILES | Averaged MCCV (WT piglet tracheas; WT piglet tracheas) [mm/min] | effect on MCCV (WT piglet tracheas; WT piglet tracheas, carbachol or forskolin alone) | MCCV (WT piglet tracheas; pig tracheas, 10 μM formoterol in place of forskolin, carbachol) [mm/min] | sustained reduction of lumen area [1] | MCCV (WT ferret tracheas) [mm/min] | increase in CBF vs unstimulated (human nasal mucosa) [%] | CBF (human nasal mucosa) [Hz]
C[N+](C)(C)CCOC(N)=O [carbachol] | 1.12±0.82 | only small increases | 1.3±0.8 | 20-40% | 8.24±0.82 | 5.3 | 11.04±1.3
C=C[C@@]1(C)CC(=O)[C@]2(O)[C@@]3(C)[C@@H](O)CCC(C)(C)[C@@H]3[C@H](O)[C@H](OC(C)=O)[C@@]2(C)O1 [forskolin] | 2.46±0.68 |  |  |  |  | 9.8 | 12.06±1.22
